In paper PMC10510716 one finds ring closure, overall yield data, which are given here for 7 compounds.

The nature of one data set: Paal-Knorr-like closure of a side-chain 1,4-diketone (DOP, unmasked from 5-substituted furan in TFA/m-cresol 9:1) with a side-chain alkylhydrazine (Nu1), then air oxidation to a pyridazinium staple; crude redissolved in mQ water, pH adjusted to ~7.5. The following applies: the molecule shown is the open-chain precursor, 29-membered ring, pH ~7.5, 5.0 mM.
Turning to `COc1ccc(C(=O)CCC(=O)CCC(=O)NCCC[C@H](NC(=O)[C@H](Cc2ccc(O)cc2)NC(C)=O)C(=O)N[C@@H](CCCNC(=N)N)C(=O)NCC(=O)N[C@@H](CC(=O)O)C(=O)N[C@@H](CCCNC(=O)CNN)C(=O)N[C@@H](CO)C(=O)N[C@@H](Cc2c[nH]c3ccccc23)C(N)=O)cc1`, the ring closure, overall yield is 13.5%.

Compound `CC(=O)CCC(=O)CCC(=O)NCCC[C@H](NC(=O)[C@H](Cc1ccc(O)cc1)NC(C)=O)C(=O)N[C@@H](CCCNC(=N)N)C(=O)NCC(=O)N[C@@H](CC(=O)O)C(=O)N[C@@H](CCCNC(=O)CNN)C(=O)N[C@@H](CO)C(=O)N[C@@H](Cc1c[nH]c2ccccc12)C(N)=O` [Ac-Y-Orn(4,7-dioxooctanoyl)*-R-G-D-Orn(COCH2NHNH2)*-S-W-NH2] showed a ring closure, overall yield of 16.8%.

As for `CC[C@H](C)[C@H](NC(=O)[C@H](CCC(=O)O)NC(=O)[C@H](CCCNC(=N)N)NC(=O)CNC(=O)[C@H](CCCCN)NC(=O)[C@H](CC(C)C)NC(=O)[C@H](Cc1c[nH]cn1)NC(=O)CNC(=O)[C@@H]1CCCN1C(C)=O)C(=O)NCC(=O)N[C@@H](CC(C)C)C(=O)N[C@@H](Cc1c[nH]c2ccccc12)C(=O)N[C@@H](Cc1ccc(O)cc1)C(=O)N[C@@H](C)C(=O)N[C@@H](CCCNC(=O)CNN)C(=O)N[C@@H](CCCCN)C(=O)N[C@@H](CCC(N)=O)C(=O)NCC(=O)N[C@@H](CCCNC(=O)CCC(=O)CCC(=O)c1ccc(OC)cc1)C(=O)N[C@@H](CCCCN)C(=O)N[C@@H](CC(N)=O)C(=O)N[C@@H](CCCCN)C(N)=O`, the ring closure, overall yield came to 10.9%.

The data set is the same for the next values; noted with them: the molecule shown is the open-chain precursor, 38-membered ring, pH ~7.5, 5.0 mM.
The compound `CC[C@H](C)[C@H](NC(=O)[C@H](CCCNC(=O)CNN)NC(=O)c1ccc(NC(C)=O)cc1)C(=O)N[C@@H](C)C(=O)N[C@@H](C)C(=O)N[C@@H](CC(C)C)C(=O)N[C@@H](CCCCN)C(=O)N[C@@H](CCC(=O)O)C(=O)N[C@@H](CCCCN)C(=O)N[C@H](C(=O)N[C@@H](CCCNC(=O)CNN)C(=O)N[C@@H](C)C(=O)N[C@@H](CC(C)C)C(=O)N[C@@H](CCCCN)C(=O)N[C@@H](CCC(=O)O)C(=O)N[C@@H](CCCCN)C(=O)N[C@H](C(=O)N[C@@H](CCCNC(=O)CCC(=O)CCC(C)=O)C(=O)N[C@@H](C)C(=O)N[C@@H](CC(C)C)C(=O)N[C@@H](CCCCN)C(=O)N[C@@H](CCC(=O)O)C(N)=O)[C@@H](C)CC)[C@@H](C)CC` returned a ring closure, overall yield of 6.9%.

`CC[C@H](C)[C@H](NC(=O)[C@H](CCCNC(=O)CCC(=O)CCC(C)=O)NC(=O)[C@H](CCCNC(=N)N)NC(=O)CNC(=O)[C@H](CCCCN)NC(=O)[C@H](CC(C)C)NC(=O)[C@H](Cc1c[nH]cn1)NC(=O)CNC(=O)[C@@H]1CCCN1C(C)=O)C(=O)NCC(=O)N[C@@H](CC(C)C)C(=O)N[C@@H](Cc1c[nH]c2ccccc12)C(=O)N[C@@H](Cc1ccc(O)cc1)C(=O)N[C@@H](C)C(=O)N[C@@H](CCCNC(=O)CNN)C(=O)N[C@@H](CCCCN)C(=O)N[C@@H](CCC(N)=O)C(=O)NCC(=O)N[C@@H](CCC(N)=O)C(=O)N[C@@H](CCCCN)C(=O)N[C@@H](CC(N)=O)C(=O)N[C@@H](CCCCN)C(N)=O` displayed a ring closure, overall yield of 16.8%.

As to `CC[C@H](C)[C@H](NC(=O)[C@H](CCCNC(=O)CCC(=O)CCC(=O)c1ccc(OC)cc1)NC(=O)[C@H](CCCNC(=N)N)NC(=O)CNC(=O)[C@H](CCCCN)NC(=O)[C@H](CC(C)C)NC(=O)[C@H](Cc1c[nH]cn1)NC(=O)CNC(=O)[C@@H]1CCCN1C(C)=O)C(=O)NCC(=O)N[C@@H](CC(C)C)C(=O)N[C@@H](Cc1c[nH]c2ccccc12)C(=O)N[C@@H](Cc1ccc(O)cc1)C(=O)N[C@@H](C)C(=O)N[C@@H](CCCNC(=O)CNN)C(=O)N[C@@H](CCCCN)C(=O)N[C@@H](CCC(N)=O)C(=O)NCC(=O)N[C@@H](CCC(N)=O)C(=O)N[C@@H](CCCCN)C(=O)N[C@@H](CC(N)=O)C(=O)N[C@@H](CCCCN)C(N)=O`, the ring closure, overall yield turned out to be 17.1%.

The compound `CC(=O)CCC(=O)CCC(=O)NCCC[C@H](NC(C)=O)C(=O)N[C@@H](Cc1c[nH]c2ccccc12)C(=O)N[C@@H](CCCNC(=N)N)C(=O)NCC(=O)N[C@@H](CC(=O)O)C(=O)N[C@@H](Cc1ccc(O)cc1)C(=O)N[C@@H](CO)C(=O)N[C@@H](CCCNC(=O)CNN)C(N)=O` [Ac-Orn(4,7-dioxooctanoyl)*-W-R-G-D-Y-S-Orn(COCH2NHNH2)*-NH2] came in with a ring closure, overall yield of 16.7%.
